Results from ChEMBL document CHEMBL5356969, “Functional evaluation of an electrophilic focused library to identify a covalent inhibitor against intrinsically disordered circadian clock transcription factors” (Bioorg Med Chem Lett, 2024).
Calls of active or inactive are those of the source. The rule behind the calls is not given here.

What was measured:
[1] = Inhibition of N-terminal (His)6/thioredoxin-tagged recombinant human BMAL1/CLOCK heterodimer expressed in Escherichia coli interaction with 5'-FAM-labeled Per2 E-box DNA (unknown origin) assessed as reduction in fluorescence intensity at 500 uM incubated for 40 mins by FP assay
[2] = Inhibition of N-terminal (His)6/thioredoxin-tagged recombinant human BMAL1/CLOCK heterodimer expressed in Escherichia coli interaction with 5'-FAM-labeled Per2 E-box DNA (unknown origin) assessed as reduction in fluorescence intensity incubated for 40 mins by FP assay
[3] = Thiol reactivity of compound assessed as second order rate constant at 200 uM in presence of TCEP by Ellman's method; type: ADME
[4] = Inhibition of N-terminal (His)6/thioredoxin-tagged recombinant human BMAL1/CLOCK heterodimer expressed in Escherichia coli interaction with FAM-labeled E-box DNA (unknown origin) assessed as reduction in fluorescence intensity upto 1000 uM
[5] = Inhibition of N-terminal (His)6/thioredoxin-tagged recombinant human BMAL1/CLOCK heterodimer expressed in Escherichia coli interaction with 5'-FAM-labeled Per2 E-box DNA (unknown origin) assessed as reduction in fluorescence intensity at 500 uM incubated for 40 mins by FP assay relative to control
[6] = Inhibition of N-terminal (His)6/thioredoxin-tagged recombinant human BMAL1/CLOCK heterodimer expressed in Escherichia coli interaction with FAM-labeled E-box DNA (unknown origin) assessed as reduction in fluorescence intensity at 50 uM pretreated with iodoacetamide followed by compound treatment

Row | Structure (SMILES) | inhibition [1] | K [3] | other results
1 | O=C(CCl)NCc1ccccc1Cl | inactive |  | 
2 | C=CC(=O)NC(C)C | inactive |  | 
3 | C=CC(=O)Nc1ccccc1 | inactive |  | 
4 | C=CC(=O)Nc1cc(C(F)(F)F)cc(C(F)(F)F)c1 |  | 0.38 10^-5/M/s | IC50 [2]: 500 µM
5 | C=CC(=O)NC1CCCCC1 | inactive |  | 
6 | O=C(CCl)NCc1ccc(Cl)cc1 | inactive |  | 
7 | C=CC(=O)NCc1ccc(Cl)cc1 | inactive |  | 
8 | O=C(CCl)Nc1cccc(C(F)(F)F)c1 |  | 3.18 10^-5/M/s | 
9 | CC(C)NC(=O)CCl | inactive |  | 
10 | C=CC(=O)Nc1cccc2ccccc12 | inactive |  | 
11 | O=C(CCl)Nc1ccccc1C(F)(F)F |  | 0.63 10^-5/M/s | 
12 | O=C(CCl)Nc1ccc(C(F)(F)F)cc1 |  | 4.47 10^-5/M/s | inhibition [4]: inactive
13 | O=C(CCl)Nc1cc(C(F)(F)F)cc(C(F)(F)F)c1 |  | 4.61 10^-5/M/s | IC50 [2]: 150 µM; inhibition [5]: 60%; inhibition [6]: inactive; inhibition [4]: Active
14 | O=C1C=CC(=O)c2nccnc21 |  |  | inhibition [6]: inactive
15 | O=C(CCl)Nc1cccc2ccccc12 | inactive |  | 
16 | O=C(CCl)Nc1ccccc1 | inactive |  | 
17 | NC(=O)CI [IODOACETAMIDE] |  | 15.9 10^-5/M/s | inhibition [4]: inactive
18 | C=CC(=O)NCc1ccccc1Cl | inactive |  | 
19 | O=C(CCl)NC1CCCCC1 | inactive |  | 
